Publication PMC7551609 (Viruses, 2020)
Entries after “also recorded” stand apart in the source; their conditions may differ. Where a name gives a salt, the structure may show the parent alone. Read-outs that look alike come from different tables or passages of the source.

Tests used:
ZIKV Paraiba/2015 [1] = experiment: Viral inhibition assay, co-treatment, Vero cells; type: cell-based, Zika virus; conditions: for Co-treatment MIC (maximum effective concentration): Vero cells, ZIKV Paraiba/2015, co-treatment
ZIKV Paraiba/2015 [2] = experiment: Viral inhibition assay, post-treatment, human A549 cells; type: cell-based, Zika virus; conditions: for inhibitor category based on SI-MTT and SI-XTT: Paraiba/2015, A549 cells; for MIC / EC50: Zika virus; for MIC: in Homo sapiens, read-out: A549 cells MIC (maximum effective concentration); for EC50: ZIKV Paraiba/2015, A549 cells, post-treatment, 36 h
ZIKV Paraiba/2015 [3] = experiment: Viral inhibition assay, pre-treatment (prophylactic), Vero cells; type: cell-based, Zika virus; conditions: for MIC / EC50: Zika virus; for MIC: read-out: Pre-treatment MIC (maximum effective concentration); for EC50: ZIKV Paraiba/2015, Vero cells, pre-treatment 12 h before infection; for inhibitor category based on SI-MTT / inhibitor category based on SI-XTT: pre-treatment, Paraiba/2015, Vero
ZIKV Paraiba/2015 [4] = experiment: Viral inhibition assay, post-infection treatment, Vero cells; type: cell-based, Zika virus; conditions: for EC50: ZIKV Paraiba/2015, Vero cells, post-infection treatment, 36 h; for MIC: read-out: Post-treatment MIC (maximum effective concentration); for inhibitor category based on SI-MTT and SI-XTT / inhibitor category based on SI-MTT / inhibitor category based on SI-XTT: post-treatment, Paraiba/2015, Vero
ZIKV Paraiba/2015 [5] = experiment: Growth kinetics inhibition assay (infectious viral progeny), Vero cells; type: cell-based, Zika virus
ZIKV PRVABC59 strain = experiment: Viral inhibition assay, post-treatment, new World strain, Vero cells; type: cell-based, Zika virus; conditions: for EC50 / MIC: Zika virus; for EC50: new World ZIKV PRVABC59, Vero cells, post-treatment, 48 h; for MIC: new World ZIKV PRVABC59, read-out: PRVABC59 MIC (maximum effective concentration)
ZIKV MR-766 strain = experiment: Viral inhibition assay, post-treatment, old World strain, Vero cells; type: cell-based, Zika virus; conditions: for EC50 / MIC: Zika virus; for EC50: old World ZIKV MR-766, Vero cells, post-treatment; for MIC: old World ZIKV MR-766 strain, read-out: MR766 MIC (maximum effective concentration)
[6] = XTT cell proliferation assay in Vero cells; type: cell-based, African green monkey; conditions: African green monkey, non-infected Vero cells, 36 h post-treatment
[7] = XTT cell proliferation in A549 cells; type: cell-based, human; conditions: human, highest concentration used 50.00 µM, sentence also cites [17]
[8] = MTT cell viability in A549 cells; type: cell-based, human; conditions: human, highest concentration used 50.00 µM, sentence also cites [17]
[9] = system: ZIKV cocktail of MR-766, FSS13025, and MEX-2-81; conditions: JEG-3 cells, ZIKV cocktail of MR-766, FSS13025, MEX-2-81; cited from earlier work
[10] = MTT cell viability assay in Vero cells; type: cell-based, African green monkey; conditions: African green monkey, non-infected Vero cells, 36 h post-treatment
ZIKV-MEX-2-81 = conditions: ZIKV-MEX-2-81, U2OS cells; cited from earlier work
ZIKV PRVABC59 [11] = system: ZIKV PRVABC59; parameters: method as in ref 22 = [22]; conditions: ZIKV PRVABC59, Huh-7 cells; cited from earlier work
ZIKV PRVABC59 [12] = system: ZIKV PRVABC59; parameters: method as in ref 22 = [22]; conditions: ZIKV PRVABC59, U251 cells; cited from earlier work
ZIKV PRVABC59 [13] = system: ZIKV PRVABC59; parameters: method as in ref 22 = [22]; conditions: ZIKV PRVABC59, SF268 cells; cited from earlier work
ZIKV FB-GWUH-2016 = system: ZIKV FB-GWUH-2016; parameters: method as in ref 27 = [27]; conditions: ZIKV FB-GWUH-2016, RPE cells; cited from earlier work
[14] = co-treatment, Paraiba/2015, Vero
[15] = 1 EC50, all the analyzed times, may be caused by toxicity

| Compound | Co-treatment MIC (maximum effective concentration) (ZIKV Paraiba/2015 [1]) | inhibitor category based on SI-MTT (ZIKV Paraiba/2015 [1]; [14]) | inhibitor category based on SI-XTT (ZIKV Paraiba/2015 [1]; [14]) | inhibitor category based on SI-MTT and SI-XTT (ZIKV Paraiba/2015 [2]) | MIC (ZIKV Paraiba/2015 [2]) | EC50 (ZIKV Paraiba/2015 [2]) | MIC (ZIKV Paraiba/2015 [3]) | EC50 (ZIKV Paraiba/2015 [3]) | inhibitor category based on SI-MTT (ZIKV Paraiba/2015 [3]) | inhibitor category based on SI-XTT (ZIKV Paraiba/2015 [3]) | EC50 (ZIKV Paraiba/2015 [4]) | EC50 (ZIKV Paraiba/2015 [4]; Zika virus, Vero) | MIC (ZIKV Paraiba/2015 [4]; Zika virus) | inhibitor category based on SI-MTT and SI-XTT (ZIKV Paraiba/2015 [4]) | EC50 (ZIKV PRVABC59 strain) | MIC (ZIKV PRVABC59 strain) | EC50 (ZIKV MR-766 strain) | MIC (ZIKV MR-766 strain) | CC50 [7] | CC50 [8] | other results |
| --- | --- | --- | --- | --- | --- | --- | --- | --- | --- | --- | --- | --- | --- | --- | --- | --- | --- | --- | --- | --- | --- |
| COc1c(C)c2c(c(O)c1C/C=C(\C)CCC(=O)OCCN1CCOCC1)C(=O)OC2 [Mycophenolate mofetil] | > 100.00 µM | Potent | potent | weak | < 11.1 µM | 0.83 µM | > 100 µM | 8.11 µM | Potent; also recorded: moderate | potent | 3.52 µM | 3.54 µM | > 100 µM | moderate to weak | 0.12 µM | < 1.23 µM | 0.24 µM | < 1.23 µM | > 50 µM | > 50 µM | inhibitor category based on SI-MTT and SI-XTT (ZIKV Paraiba/2015 [1]; [14]): potent; effect on production of infectious viral progeny (viral titers) (ZIKV Paraiba/2015 [5]; 0.1, 1, 10 EC50, all time points (24, 48, 72 h post-treatment), MOI 0.1): dose-dependent inhibitory effect; inhibitor category based on SI-MTT and SI-XTT (ZIKV PRVABC59 strain; ZIKV PRVABC59, Vero): potent; inhibitor category based on SI-MTT and SI-XTT (ZIKV MR-766 strain; ZIKV MR-766, Vero): most potent; also recorded: potent; CC50 at 36 h ([6]; confluent monolayers): > 1350 µM; EC50 [9]: 0.76 µM; CC50 at 36 h ([10]; confluent monolayers): 166 µM |
| NCC(=O)Nc1ccc(-n2nc(C(F)(F)F)cc2-c2ccc3c(ccc4ccccc43)c2)cc1 [OSU-03012] | > 100.00 µM | weak | potent | moderate | < 1.23 µM | 0.21 µM | < 3.7 µM | 0.93 µM | moderate | highest potent | 8.4 µM | 6.85 µM | < 33.3 µM | weakest | 1.68 µM | > 11.1 µM | 0.81 µM | < 11.1 µM | > 50 µM | > 50 µM | EC50 (ZIKV Paraiba/2015 [1]; Zika virus, Vero): 1.77 µM; inhibitor category based on SI-MTT (ZIKV Paraiba/2015 [4]): weak; inhibitor category based on SI-XTT (ZIKV Paraiba/2015 [4]): weak; effect on production of infectious viral progeny (viral titers) (ZIKV Paraiba/2015 [5]; [15]): Complete inhibition; EC50 (ZIKV-MEX-2-81): 0.9 µM; EC50 (ZIKV PRVABC59 [11]): 0.82 to 0.88 µM; inhibitor category based on SI-MTT (ZIKV PRVABC59 strain; ZIKV PRVABC59, Vero): weak; inhibitor category based on SI-XTT (ZIKV PRVABC59 strain; ZIKV PRVABC59, Vero): moderate; inhibitor category based on SI-MTT (ZIKV MR-766 strain; ZIKV MR-766, Vero): weak; inhibitor category based on SI-XTT (ZIKV MR-766 strain; ZIKV MR-766, Vero): moderate; CC50 at 36 h [6]: 132 µM; EC50 (ZIKV PRVABC59 [12]): 0.84 µM; EC50 (ZIKV PRVABC59 [13]): 1.18 µM; CC50 at 36 h [10]: 6.39 µM |
| COC1=CC(c2cc3ccccc3[nH]2)=N/C1=C\c1[nH]c(C)cc1C [Obatoclax, Obatoclax mesylate] | < 3.70 µM | Potent | potent | weak | < 1.23 µM | 0.64 µM | < 11.1 µM | 2.96 µM | moderate |  | 0.63 µM | 0.58 µM | < 0.01 µM | moderate to weak | 0.41 µM | < 1.23 µM | 0.37 µM | < 1.23 µM | > 50 µM | > 50 µM | EC50 (ZIKV FB-GWUH-2016): 0.04 µM; inhibitor category based on SI-MTT (ZIKV Paraiba/2015 [4]): weak; inhibitor category based on SI-XTT (ZIKV Paraiba/2015 [4]): potent; effect on production of infectious viral progeny (viral titers) (ZIKV Paraiba/2015 [5]; [15]): Complete inhibition; inhibitor category based on SI-MTT (ZIKV PRVABC59 strain; ZIKV PRVABC59, Vero): weak; inhibitor category based on SI-XTT (ZIKV PRVABC59 strain; ZIKV PRVABC59, Vero): potent; inhibitor category based on SI-MTT (ZIKV MR-766 strain; ZIKV MR-766, Vero): weak; inhibitor category based on SI-XTT (ZIKV MR-766 strain; ZIKV MR-766, Vero): moderate; CC50 at 36 h ([6]; confluent monolayers): 60.4 µM; inhibitory activity [9]: did not exhibit inhibitory activity; CC50 at 36 h ([10]; confluent monolayers): 17.6 µM |
